In patent US20260193227A1, “THERAPEUTIC COMPOUNDS AND METHODS” (UNIVERSITY OF IOWA RESEARCH FOUNDATION, priority 2022, published 2026):
Entries after “also recorded” stand apart in the source; their conditions may differ.

How the values were obtained:
RPA-ssDNA-RAD52 complex = biological target: T1, RPA-ssDNA-RAD52 complex (Homo sapiens, UniProt P43351); assay: FRET-based inhibition of the RPA-ssDNA-RAD52 complex; assay type: binding; conditions: for effect on the RPA-ssDNA-RAD52 complex: FRET titration
T1 construct: 6xHis; made in house
T1 sequence (P43351 1-418): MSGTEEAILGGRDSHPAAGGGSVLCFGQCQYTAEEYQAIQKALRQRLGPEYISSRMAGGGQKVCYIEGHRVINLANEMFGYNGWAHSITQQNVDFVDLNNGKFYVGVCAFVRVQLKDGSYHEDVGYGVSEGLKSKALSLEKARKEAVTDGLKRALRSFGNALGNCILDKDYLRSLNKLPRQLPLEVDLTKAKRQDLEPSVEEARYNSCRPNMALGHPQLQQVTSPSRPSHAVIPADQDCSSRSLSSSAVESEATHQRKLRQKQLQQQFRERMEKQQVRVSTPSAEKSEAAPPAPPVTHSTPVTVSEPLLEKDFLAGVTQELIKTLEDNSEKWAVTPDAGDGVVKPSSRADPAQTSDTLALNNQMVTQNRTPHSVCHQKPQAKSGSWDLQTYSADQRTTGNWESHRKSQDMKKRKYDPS
Procedure: Proteins: The 6×His-tagged human RAD52 proteins (wild type and mutants) and untagged human RPA were expressed and purified as previously described in (Hengel S R, eLife. 2016; 5; Grimme J M, et al., Nucleic Acids Res. 2010; 38(9):2917-30; and Henricksen L A, et al., The Journal of biological chemistry. 1994; 269(15):11121-32). RPA and RAD52 protein concentrations were determined by measuring absorbance at 280 nm using extinction coefficients of 88,830 M^−1 cm^−1 and 40,470 M^−1 cm^−1, respectively.
FRET-based DNA binding and inhibition assays: FRET-based that monitor the RAD52-ssDNA, RPA-ssDNA and RAD52-RPA-ssDNA binding were carried out as previously described (Hengel S R, eLife. 2016; 5; Grimme J M, et al., Nucleic Acids Res. 2010; 38(9):2917-30; and Grimme J M, Spies M. FRET-based assays to monitor DNA binding and annealing by Rad52 recombination mediator protein. Methods in molecular biology (Clifton, NJ). 2011; 745:463-83) using Cary Eclipse Spectrofluorimeter (Agilent) at 25° C., in 5 mm quartz cuvettes, and in buffer containing 30 mM Tris-Acetate (pH 7.5) and 1 mM DTT. Cy3 dye was excited at 530 nm and its emission was monitored at 565 nm. Emission of Cy5 acceptor fluorophore excited through the energy transfer from Cy3 donor is monitored at 660 nm simultaneously with emission of Cy3 dye. Both the excitation and the emission slits were set to 10 nm. All experiments were carried out using 1 nM (molecules) Cy3-dT30-Cy5 ssDNA. The optimal concentrations of the RAD52 (6 nM) and RPA (1 nM) proteins were selected by titrating the respective protein into 1 nM Cy3-dT30-Cy5 solution, and chosen based on the largest separation of the FRET values corresponding to the protein bound and free DNA.
The inhibition of the RAD52-ssDNA, RPA-ssDNA and RAD52-RPA-ssDNA complexes was evaluated by titrating each compound to the respective complex, measuring Cy3 and Cy5 fluorescence, and calculating FRET as previously described (Hengel, S. R., et al., eLife, 5).
Spectral properties of many compounds overlapped with the Cy3 and Cy5 fluorescence. To correct the calculated FRET values for the compound signal, the fluorogenic compounds were titrated into buffer and into solution of 1 nM Cy3-dT30-Cy5. For all tested compounds, the change in the signal in the Cy3 and Cy5 channels with and without Cy3/Cy5-labeled DNA present was the same. […] To account for the dye fluorescence, for each compound concentration, the apparent change in FRET of the ssDNA in the presence the compound was subtracted from the respective FRET signal of the RAD52-ssDNA, RPA-ssDNA or RAD52-ssDNA-RPA complex at the same inhibitor concentration. The IC50 values were calculated by fitting the corrected FRET data to the four-parameter dose response model using GraphPad Prism. All data are shown as average for at least three independent experiments ±standard deviation. The IC50 values are presented with their respective fitting error.

EUFA423F HA cells = assay: CellTiter-Glo cell viability, BRCA2-complemented cells; assay type: cell-based, human; conditions: high concentrations (Z56: 250 μM)

SMILES | effect on the RPA-ssDNA-RAD52 complex (RPA-ssDNA-RAD52 complex) | effect on viability/growth of BRCA2-complemented HA cells (EUFA423F HA cells; listed as Z99) | fold lower IC50 for the RPA-ssDNA-RAD52 complex than for the RAD52-ssDNA complex (RPA-ssDNA-RAD52 complex; wild type RAD52) [fold] | effect on viability/growth of BRCA2-complemented HA cells (EUFA423F HA cells)
O=C(Cn1cccc([N+](=O)[O-])c1=O)c1c[nH]c2ccccc12 [Example 1] | yields FRET values corresponding to the free ssDNA | affected the viability; also recorded: some toxicity towards BRCA2-complemented cells | – | –
COc1ccccc1NS(=O)(=O)c1cc(C(=O)O)ccc1C [Example 8] | decreases the FRET values of the RPA-ssDNA-RAD52 complex | – | 6 | unaffected
